The text below walks through data of patent publication US9163013B2, “Use of 1H-indazole-3-carboxamide compounds as glycogen synthase kinase 3 beta inhibitors” (AZIENDE CHIMICHE RIUNITE ANGELINI FRANCESCO A.C.R.A.F. …, priority 2012, dated 2015).

The IC50 is the midpoint of a concentration-inhibition curve.

The target in one assay is HGK (h) (MAP4K4) (Homo sapiens (Human), UniProt O95819). Description: Kinase selectivity panel. The class given is biochemical. To be noted: duplicate, read-out: % inhibition of control values, HGK (h) (MAP4K4). The method, then: (§1) (a) Compound 1 was tested against a panel of 60 kinases in order to assess its selectivity. The assays were chosen taking into consideration the diversity of assay families.
Sequence of HGK (h) (MAP4K4) (O95819 whole entry): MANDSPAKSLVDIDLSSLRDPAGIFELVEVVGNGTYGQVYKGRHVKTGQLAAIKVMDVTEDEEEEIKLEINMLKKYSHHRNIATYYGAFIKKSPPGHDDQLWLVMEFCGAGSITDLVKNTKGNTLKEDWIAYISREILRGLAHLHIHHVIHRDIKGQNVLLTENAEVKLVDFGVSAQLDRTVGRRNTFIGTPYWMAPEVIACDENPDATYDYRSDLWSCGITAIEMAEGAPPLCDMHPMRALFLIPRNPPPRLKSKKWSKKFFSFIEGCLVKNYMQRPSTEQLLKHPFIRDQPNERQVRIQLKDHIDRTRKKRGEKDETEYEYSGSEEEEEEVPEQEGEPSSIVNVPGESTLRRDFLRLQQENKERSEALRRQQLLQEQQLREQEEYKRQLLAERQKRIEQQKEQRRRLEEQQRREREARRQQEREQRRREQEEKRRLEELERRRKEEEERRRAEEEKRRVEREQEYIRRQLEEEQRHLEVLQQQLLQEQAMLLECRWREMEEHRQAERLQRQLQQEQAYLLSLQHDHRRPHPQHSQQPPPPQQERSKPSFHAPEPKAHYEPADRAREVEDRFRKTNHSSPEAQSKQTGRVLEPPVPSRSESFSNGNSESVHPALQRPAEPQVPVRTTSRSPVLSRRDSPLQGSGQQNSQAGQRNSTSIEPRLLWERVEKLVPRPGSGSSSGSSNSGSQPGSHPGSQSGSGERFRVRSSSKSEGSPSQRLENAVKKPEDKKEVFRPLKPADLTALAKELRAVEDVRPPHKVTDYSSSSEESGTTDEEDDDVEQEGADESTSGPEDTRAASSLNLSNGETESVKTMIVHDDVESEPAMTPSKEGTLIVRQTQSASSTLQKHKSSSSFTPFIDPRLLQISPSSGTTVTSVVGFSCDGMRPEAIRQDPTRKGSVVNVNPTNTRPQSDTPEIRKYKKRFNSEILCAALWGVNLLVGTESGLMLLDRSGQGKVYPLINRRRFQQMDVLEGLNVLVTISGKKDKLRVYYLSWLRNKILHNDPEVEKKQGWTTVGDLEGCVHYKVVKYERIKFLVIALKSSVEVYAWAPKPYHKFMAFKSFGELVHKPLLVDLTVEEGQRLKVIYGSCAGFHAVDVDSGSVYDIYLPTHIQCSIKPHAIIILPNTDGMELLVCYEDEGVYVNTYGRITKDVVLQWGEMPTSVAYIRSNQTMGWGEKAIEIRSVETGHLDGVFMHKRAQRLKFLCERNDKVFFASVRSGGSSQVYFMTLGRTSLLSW
(§2) Human recombinant kinases were incubated in the presence of specific peptide substrates plus ATP for different times (10, 15, 30, 60 or 90 minutes) at 22° C. Phosphorylated substrate was detected by LANCE or HTRF technology (CISBIO, MA, USA).
(§3) Compound 1 was tested at 10 μM in duplicate.
(§4) The results are expressed as a percent of inhibition of control specific activity obtained in the presence of the test compound 1 and are reported in the following Table 5.
(§5) (b) Compounds 7, 12, 21 and 24 were tested against the same panel of 60 kinases under the same conditions described above for compound 1.
(§6) The results are expressed as a percent of inhibition of control specific activity obtained in the presence of the test compounds and are reported in the following Table 6.

For the next assay, the target named is TRKA (h) (Homo sapiens (Human), UniProt P04629). Description: Kinase selectivity panel. The class given is biochemical. To be noted: duplicate, read-out: % inhibition of control values, TRKA (h). The method, then:
as §1, §2, §3, §4, §5, §6

The target of a further assay is IRK (h) (InsR) (Homo sapiens (Human), UniProt P06213). As to the kind of experiment: Kinase selectivity panel. The class given is biochemical. The following applies: duplicate, read-out: % inhibition of control values, IRK (h) (InsR). How it is done: as §1, §2, §3, §4, §5, §6
Sequence of IRK (h) (InsR) (P06213 28-1382): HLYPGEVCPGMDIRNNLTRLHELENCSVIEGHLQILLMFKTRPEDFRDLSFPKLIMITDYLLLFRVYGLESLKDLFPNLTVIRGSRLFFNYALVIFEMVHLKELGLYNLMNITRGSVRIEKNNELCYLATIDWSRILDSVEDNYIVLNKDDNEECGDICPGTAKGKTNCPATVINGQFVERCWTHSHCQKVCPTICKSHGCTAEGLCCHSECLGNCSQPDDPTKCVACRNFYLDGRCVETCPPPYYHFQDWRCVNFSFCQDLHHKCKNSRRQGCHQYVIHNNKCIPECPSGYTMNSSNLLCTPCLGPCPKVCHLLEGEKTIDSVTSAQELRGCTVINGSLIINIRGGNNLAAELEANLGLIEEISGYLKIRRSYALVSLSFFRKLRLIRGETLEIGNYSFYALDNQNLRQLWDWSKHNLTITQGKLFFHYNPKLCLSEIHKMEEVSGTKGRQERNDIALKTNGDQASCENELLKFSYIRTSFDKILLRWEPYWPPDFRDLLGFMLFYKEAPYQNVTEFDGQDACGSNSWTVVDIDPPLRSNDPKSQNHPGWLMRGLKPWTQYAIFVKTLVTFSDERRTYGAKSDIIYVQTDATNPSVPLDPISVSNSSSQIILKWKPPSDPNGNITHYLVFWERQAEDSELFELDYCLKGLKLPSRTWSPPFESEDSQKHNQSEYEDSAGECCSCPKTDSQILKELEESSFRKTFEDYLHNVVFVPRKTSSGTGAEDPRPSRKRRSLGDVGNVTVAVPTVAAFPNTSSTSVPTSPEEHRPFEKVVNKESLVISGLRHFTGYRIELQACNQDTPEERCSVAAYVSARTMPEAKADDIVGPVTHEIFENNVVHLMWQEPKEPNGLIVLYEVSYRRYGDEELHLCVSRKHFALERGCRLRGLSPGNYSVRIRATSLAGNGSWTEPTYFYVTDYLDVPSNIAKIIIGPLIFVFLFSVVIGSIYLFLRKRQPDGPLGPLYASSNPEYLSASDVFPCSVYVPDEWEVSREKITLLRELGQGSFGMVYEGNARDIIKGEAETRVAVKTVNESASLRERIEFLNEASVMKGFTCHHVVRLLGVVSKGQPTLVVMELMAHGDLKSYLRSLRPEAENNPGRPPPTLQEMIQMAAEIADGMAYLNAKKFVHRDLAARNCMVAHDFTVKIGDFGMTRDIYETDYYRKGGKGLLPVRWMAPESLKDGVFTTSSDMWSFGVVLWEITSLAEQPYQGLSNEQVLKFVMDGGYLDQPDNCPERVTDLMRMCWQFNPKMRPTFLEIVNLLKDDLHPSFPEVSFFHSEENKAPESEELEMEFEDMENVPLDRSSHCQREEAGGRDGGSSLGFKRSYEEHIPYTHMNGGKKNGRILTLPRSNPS
The next assay has as its target GSK3beta (h) (Homo sapiens (Human), UniProt P49841). Description: Kinase selectivity panel. The class given is biochemical. To be noted: for inhibition at 10 µM: duplicate, read-out: % inhibition of control values, GSK3beta (h); for Selectivity for GSK-3β compared to the other kinases of the panel: panel of 60 kinases, 10 μM. How it is done: as §1, §2, §3, §4, §5, §6

A further assay addresses Src kinase (h) (Homo sapiens (Human), UniProt P12931). Description: Kinase selectivity panel. The class given is biochemical. To be noted: duplicate, read-out: % inhibition of control values, Src kinase (h). The method, then: as §1, §2, §3, §4, §5, §6
For another assay, the target named is NEK1 (h) (Homo sapiens (Human), UniProt Q96PY6). As to the kind of experiment: Kinase selectivity panel. The class given is biochemical. The following applies: duplicate, read-out: % inhibition of control values, NEK1 (h). How it is done:
as §1, §2, §3, §4, §5, §6

The next assay addresses CDK5/p35 (h) (Homo sapiens (Human), UniProt Q00535). Description: Kinase selectivity panel. It counts as biochemical. The following applies: duplicate, read-out: % inhibition of control values, CDK5/p35 (h). How it is done: as §1, §2, §3, §4, §5, §6
The target of a further assay is MEK1/MAP2K1 (h) (Homo sapiens (Human), UniProt Q02750). Description: Kinase selectivity panel. The class given is biochemical. To be noted: duplicate, read-out: % inhibition of control values, MEK1/MAP2K1 (h). How it is done: as §1, §2, §3, §4, §5, §6
Sequence of MEK1/MAP2K1 (h) (Q02750 whole entry): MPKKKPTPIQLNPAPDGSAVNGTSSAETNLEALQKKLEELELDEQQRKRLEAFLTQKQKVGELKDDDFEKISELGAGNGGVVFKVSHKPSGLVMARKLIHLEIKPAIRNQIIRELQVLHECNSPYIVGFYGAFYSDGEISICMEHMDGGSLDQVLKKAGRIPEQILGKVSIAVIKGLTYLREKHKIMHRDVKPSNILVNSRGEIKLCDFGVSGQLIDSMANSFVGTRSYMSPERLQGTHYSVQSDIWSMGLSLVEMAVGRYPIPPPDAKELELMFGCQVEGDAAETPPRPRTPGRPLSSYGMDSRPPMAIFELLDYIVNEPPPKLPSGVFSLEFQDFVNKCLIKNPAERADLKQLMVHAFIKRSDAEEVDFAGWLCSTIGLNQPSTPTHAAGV
In another assay the target is ERK2 (h) (P42mapk) (Homo sapiens (Human), UniProt P28482). Description: Kinase selectivity panel. The class given is biochemical. To be noted: duplicate, read-out: % inhibition of control values, ERK2 (h) (P42mapk). The method, then: as §1, §2, §3, §4, §5, §6
Sequence of ERK2 (h) (P42mapk) (P28482 whole entry): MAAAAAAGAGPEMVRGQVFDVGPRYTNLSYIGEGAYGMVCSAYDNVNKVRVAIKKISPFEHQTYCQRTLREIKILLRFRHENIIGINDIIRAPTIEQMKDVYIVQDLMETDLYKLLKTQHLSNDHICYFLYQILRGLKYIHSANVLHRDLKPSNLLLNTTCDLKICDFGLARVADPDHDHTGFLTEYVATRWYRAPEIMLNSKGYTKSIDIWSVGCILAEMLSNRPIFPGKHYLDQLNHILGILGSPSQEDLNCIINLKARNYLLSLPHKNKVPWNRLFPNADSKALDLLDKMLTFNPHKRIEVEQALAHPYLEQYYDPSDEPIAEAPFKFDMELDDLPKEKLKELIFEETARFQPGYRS
Another assay concerns the target CDC2/CDK1 (h) (cycB) (Homo sapiens (Human), UniProt P06493). As to the kind of experiment: Kinase selectivity panel. The class given is biochemical. The following applies: duplicate, read-out: % inhibition of control values, CDC2/CDK1 (h) (cycB). The method, then:
as §1, §2, §3, §4, §5, §6

In a further assay the target is ERK1 (h) (Homo sapiens (Human), UniProt P27361). Description: Kinase selectivity panel. It counts as biochemical. The following applies: duplicate, read-out: % inhibition of control values, ERK1 (h). How it is done: as §1, §2, §3, §4, §5, §6
In a further assay the target is TAOK2 (TAO1) (h) (Homo sapiens (Human), UniProt Q9UL54). Description: Kinase selectivity panel. It counts as biochemical. To be noted: duplicate, read-out: % inhibition of control values, TAOK2 (TAO1) (h). The method, then: as §1, §2, §3, §4, §5, §6
Another assay has as its target smMLCK (h) (MYLK) (Homo sapiens (Human), UniProt Q15746). Description: Kinase selectivity panel. The class given is biochemical. The following applies: duplicate, read-out: % inhibition of control values, smMLCK (h) (MYLK). How it is done:
as §1, §2, §3, §4, §5, §6

Another assay deals with PCTAIRE1 kinase (h) (Homo sapiens (Human), UniProt Q00536). As to the kind of experiment: Kinase selectivity panel and IC50 determination. The class given is biochemical. To be noted: 10 μM, duplicate; read-out: % inhibition of control values, PCTAIRE1 kinase (h). How it is done: as §1, §2, §3, §4
(§7) Compound 1 was also assayed to determine the IC50 values for three different kinases (PCTAIRE1, DYRK1a, and CDK2) in comparison to Gsk3β. The assay was conducted with the same method described above in test I, second assay.
as §5, §6

The target in a further assay is CDK2 (h) (cycA) (Homo sapiens (Human), UniProt P24941). Description: Kinase selectivity panel and IC50 determination. It counts as biochemical. To be noted: 10 μM, duplicate; read-out: % inhibition of control values, CDK2 (h) (cycA). The method, then:
as §1, §2, §3, §4, §7, §5, §6

The target of another assay is DYRK1a (h) (Homo sapiens (Human), UniProt Q13627). As to the kind of experiment: Kinase selectivity panel and IC50 determination. The class given is biochemical. The following applies: 10 μM, duplicate; read-out: % inhibition of control values, DYRK1a (h). The method, then:
as §1, §2, §3, §4, §7, §5, §6

For assay [1], the target named is T1, human GSK-3β (Homo sapiens (Human), UniProt P49841). As to the kind of experiment: Activity on human GSK-3β, substrate phosphorylation measured by LANCE technology. It counts as biochemical. The following applies: LANCE phosphorylation assay; five concentrations 100 μM to 10 nM, duplicate; read-out: IC50. The method, then: Activity on human GSK-3β was assessed using the following methods (according to Meijer et al., Chem. Biol., 2003-10:1255-1266).
T1 sequence (P49841 whole entry): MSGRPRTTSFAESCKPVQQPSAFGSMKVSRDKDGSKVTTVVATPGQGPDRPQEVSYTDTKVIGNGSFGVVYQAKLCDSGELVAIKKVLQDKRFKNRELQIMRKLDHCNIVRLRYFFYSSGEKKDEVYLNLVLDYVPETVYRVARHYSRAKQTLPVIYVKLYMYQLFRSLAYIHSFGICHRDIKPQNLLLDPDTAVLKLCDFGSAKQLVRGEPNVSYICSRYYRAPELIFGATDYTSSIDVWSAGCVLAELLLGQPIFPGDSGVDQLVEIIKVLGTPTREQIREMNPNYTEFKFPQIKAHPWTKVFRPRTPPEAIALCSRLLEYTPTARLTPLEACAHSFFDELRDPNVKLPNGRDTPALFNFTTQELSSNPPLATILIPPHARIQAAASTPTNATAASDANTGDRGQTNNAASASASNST
In a first screening assay, compounds were tested in duplicate at a concentration of 10 μM.
Human recombinant enzyme GSK-3β was incubated for 90 minutes at 22° C. in the presence of compounds or vehicle in a reaction buffer containing ATP plus 100 nM unphosphorylated specific substrate peptide (Ulight-[…]-amide). Substrate phosphorylation was measured by LANCE technology (PerkinElmer, Conn., USA).
The results, reported in the following Table 4, are expressed as a percent of inhibition of control specific activity obtained in the presence of the test compounds (as % inhibition at 10 μm).
(§8) In a second assay, the same compounds were assayed at five concentrations ranging from 100 μM to 10 nM with ten-fold dilutions in duplicate. Compounds 1 to 7, 9, 11 and 13 to 26 were tested using the same first assay, compounds 8, 10, 12, and 27 to 31 were tested in another assay based on the binding and displacement of AlexaFluor® 647 labeled, ATP-competitive Kinase inhibitor scaffold using LanthaScreen™ TR-FRET technology Eu Kinase assay packet according to manufacturer's instruction (Life Technologies, Italy).
(§9) The IC50 values (concentration causing a half maximal inhibition of control specific activity), reported in table 4, were determined by non-linear regression analysis of the inhibition curves generated with mean replicate values using Hill equation curve fitting.
For orientation: In TR-FRET formats the signal depends on donor and acceptor labels being close together.

Assay [2] addresses T1, human GSK-3β. As to the kind of experiment: LanthaScreen TR-FRET Eu Kinase binding and displacement assay. To be noted: five concentrations 100 μM to 10 nM, duplicate. The method, then:
as §8, §9

Molecules are shown by their SMILES.

Sequence of GSK3beta (h) (P49841 whole entry): as above
Sequence of CDK5/p35 (h) (Q00535 whole entry): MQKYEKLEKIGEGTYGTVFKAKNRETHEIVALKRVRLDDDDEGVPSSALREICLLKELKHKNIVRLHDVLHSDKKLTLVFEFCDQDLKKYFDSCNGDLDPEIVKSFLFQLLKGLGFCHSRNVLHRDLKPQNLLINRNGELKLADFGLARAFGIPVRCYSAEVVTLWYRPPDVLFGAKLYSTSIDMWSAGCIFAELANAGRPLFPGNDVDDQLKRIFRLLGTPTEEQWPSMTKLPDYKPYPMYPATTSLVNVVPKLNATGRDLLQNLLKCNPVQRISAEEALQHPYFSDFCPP
Sequence of CDK5/p35 (h) (Q15078 whole entry partner): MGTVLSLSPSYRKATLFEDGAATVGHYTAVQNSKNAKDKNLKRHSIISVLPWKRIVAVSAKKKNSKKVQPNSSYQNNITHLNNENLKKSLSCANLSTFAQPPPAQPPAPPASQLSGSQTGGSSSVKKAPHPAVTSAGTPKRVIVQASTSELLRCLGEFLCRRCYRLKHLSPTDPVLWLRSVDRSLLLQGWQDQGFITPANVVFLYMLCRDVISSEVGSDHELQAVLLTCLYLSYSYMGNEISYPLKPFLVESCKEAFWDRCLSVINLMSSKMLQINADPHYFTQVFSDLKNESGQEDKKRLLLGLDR
Sequence of Src kinase (h) (P12931 whole entry, looked up): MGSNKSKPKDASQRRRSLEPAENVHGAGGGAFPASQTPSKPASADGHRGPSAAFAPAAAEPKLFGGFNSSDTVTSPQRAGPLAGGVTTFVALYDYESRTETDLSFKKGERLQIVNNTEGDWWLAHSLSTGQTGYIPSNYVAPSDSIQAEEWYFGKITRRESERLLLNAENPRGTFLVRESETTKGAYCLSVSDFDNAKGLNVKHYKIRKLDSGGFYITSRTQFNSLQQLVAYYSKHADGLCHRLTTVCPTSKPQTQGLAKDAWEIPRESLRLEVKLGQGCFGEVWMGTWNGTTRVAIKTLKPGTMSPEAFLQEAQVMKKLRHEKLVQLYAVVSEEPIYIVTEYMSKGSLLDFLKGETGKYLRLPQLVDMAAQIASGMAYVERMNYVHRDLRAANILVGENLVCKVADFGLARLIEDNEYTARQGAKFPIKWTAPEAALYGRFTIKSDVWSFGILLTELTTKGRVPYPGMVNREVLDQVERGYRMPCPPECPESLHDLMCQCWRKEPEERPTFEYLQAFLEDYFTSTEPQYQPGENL

In the case of `COC(=O)c1csc(CN2CCC(CNC(=O)c3n[nH]c4ccc(OC)cc34)CC2)n1` [Compound 7, Methyl 2-{[4-({[(5-methoxy-1H-indazol-3-yl)carbonyl]amino}methyl)piperidin-1-yl]methyl}-1,3-thiazole-4-carboxylate], the inhibition at 10 µM is 21% at HGK (h) (MAP4K4); 1% on TRKA (h); 0% at IRK (h) (InsR); 96% on GSK3beta (h); 9% at Src kinase (h); 0% on NEK1 (h). The inhibition at 10 µM on CDK5/p35 (h) turned out to be 21%; at MEK1/MAP2K1 (h) it was 27%; on ERK2 (h) (P42mapk), 33%; at CDC2/CDK1 (h) (cycB), 6%; at ERK1 (h) it was 31%; at TAOK2 (TAO1) (h), 16%. Further, the inhibition at 10 µM at smMLCK (h) (MYLK) stood at 26%; at PCTAIRE1 kinase (h), 2%; at CDK2 (h) (cycA), 48%; at DYRK1a (h), 88%. At GSK3beta (h), the “Selectivity for GSK-3β compared to the other kinases of the panel” value was “good selectivity profile”. For the same compound, at human GSK-3β [1], the IC50 came out at 130 nM.

On to `O=C(O)c1coc(CN2CCC(CNC(=O)c3n[nH]c4ccc(-c5cccc(F)c5F)cc34)CC2)n1` [Compound 12, 2-({4-[({[5-(2,3-Difluorophenyl)-1H-indazol-3-yl]carbonyl}amino)methyl]piperidin-1-yl}methyl)-1,3-oxazole-4-carboxylic acid hydrate], for which, on human GSK-3β [2], the concentration for half-maximal inhibition (IC50) worked out at 10 nM. In addition, the inhibition at 10 µM at HGK (h) (MAP4K4) turned out to be 98%; at TRKA (h) it was 5%; on IRK (h) (InsR), 0%; at GSK3beta (h), 100%; at Src kinase (h), 15%; at NEK1 (h) it was 30%. For the same compound, the inhibition at 10 µM was determined as 87% at CDK5/p35 (h); 86% at MEK1/MAP2K1 (h); 91% on ERK2 (h) (P42mapk); 77% on CDC2/CDK1 (h) (cycB); 85% at ERK1 (h); 81% at TAOK2 (TAO1) (h). The inhibition at 10 µM came to 36% on smMLCK (h) (MYLK), 42% on PCTAIRE1 kinase (h), 96% at CDK2 (h) (cycA) and 99% on DYRK1a (h). Further, the “Selectivity for GSK-3β compared to the other kinases of the panel” value on GSK3beta (h) is given as “good affinity to GSK-3β when compared to most of other kinases of the same family”.
